# Target: ACAT
# Assay: Evaluation of ACAT inhibitory activity (rat liver enzyme preparation, [14C]-oleoyl CoA substrate)
# Type: biochemical
# Settings: ACAT from liver of rats on high-cholesterol feed; 30° C.; pIC50 from concentration-response curve by the nonlinear least square method
# Protocol: IR (cm^−1) (KBr): • 1517, 1521, 2962. Test (Evaluation of ACAT Inhibitory Activity) (1) Preparation of the Enzyme (ACAT)
# (1-1) Each rat was reared for about 3 weeks on high-cholesterol feed (solid feed prepared by adding 1% of cholesterol, 0.3% of sodium cholate, 0.1% of propylthiouracil and 3% of lard to a conventional feed MF).
# (1-2) The liver of the rat reared in (1-1) was collected and shredded. 10 mM HEPES buffer (pH 7.4) which contained 0.25 M of sucrose and 1 mM of EDTA was added in an amount about three times as much as the weight of the liver to suspend the latter. The liver was then homogenized by a glass-Teflon homogenizer.
# (1-3) The homogenized liver was centrifuged for 15 minutes under 22000×g, and the supernatant was collected.
# (1-4) The supernatant was centrifuged further for 60 minutes under 100000×g. To the precipitates, 10 mM HEPES buffer (pH 7.4) containing 0.25 M of sucrose and 1 mM of EDTA therein was added in about a half of the volume used in (1-2), and the precipitates were suspended again.
# (1-5) The suspension was again centrifuged for 60 minutes under 100000×g, and the resulting precipitates were collected. 10 mM HEPES buffer (pH 7.4) containing 0.25 M of sucrose and 2 mM of DTT therein was added to suspend the precipitates. The suspension was stored at −80° C.
# (2) Preparation of Reagents
# 0.75 M Phosphate buffer (pH 7.4), 800 μM BSA and 100 mM DTT were mixed together in amounts of 1.0 mL, 0.5 mL and 0.1 mL, respectively, and ultrapure water (3.4 mL) was added.
# A refrigerated sample of the enzyme was diluted with the “reaction buffer” described above to 2.5 mg protein/mL.
# 10^−3 M Solutions of the compounds to be evaluated were prepared with methanol. 3×10^−4 M Solutions were each prepared by adding 50% methanol (700 μL) to the corresponding 10^−3 M solution (300 μL). 10^−4 M Solutions were each prepared by adding 50% methanol (600 μL) to the corresponding […] solution (300 μL). Up to 10^−7 M solutions (serial 3-fold dilutions), the solutions were prepared by a similar procedure.
# (3) Assay Method of ACAT Activity
# (3-1) ACAT (20 μL), the reaction buffer (20 μL) and desired one (5 μL) of test samples were placed in a 1.5 mL test tube and incubated at 30° C. for 10 minutes (the resulting solution will hereinafter be called “I”).
# (3-2) Reaction substrate [^14C]-oleoyl CoA (5 μL) was added into “I”, and was allowed to react at 30° C. for 4 minutes.
# (3-3) Four minutes later, methanol (250 μL) was added to terminate the reaction, and then, a lipid mixture (40 μL), recovery-percentage-correcting [^3H]-cholesteryl oleate (10 μL) and hexane (700 μL) were added into the test tube (this solution will hereinafter be called “II”).
# (3-4) “II” was stirred in a mixer, and the hexane layer (500 μL) was collected and transferred into another test tube (this solution will hereinafter be called “III”).
# (3-5) “III” was evaporated to dryness, dissolved in chloroform (10 μL), and then spotted on a TLC plate. At that time, cholesteryl oleate was also spotted.
# (3-6) After the spots were dried, they were developed with a 85:15:0.5 mixture of hexane, diethyl ether and acetic acid as a developer solvent, and then stained with iodine. A plate section corresponding to the spot of cholesteryl oleate was cut out and placed in a vial. At the same time, the reaction substrate [^14C]-oleoyl CoA (5 μL) and the recovery-percentage-correcting [^3H]-cholesteryl oleate (10 μL) were spotted on the TLC plate, and similarly, plate sections were cut out and placed in vials, respectively.
# (3-7) Subsequently, “Aquazole II” (about 10 mL) was added to the vials. After the vials were allowed to stand for a while, they were measured for [^14C] and [^3H] radioactivities.
# Using the radioactivities, the % recovery of [^14C]-cholesteryl oleate formed by the enzymatic reaction was calculated from the radioactivity of [^3H], and from the radioactivity of [^14C], the yield of cholesteryl oleate was calculated. […]
row,Compound,PIC50
1,"CCCCCN(CC(=O)Nc1c(F)cc(F)cc1F)Cc1ccc(-c2ccccc2-c2nnn[nH]2)cc1 [Compound of the formula (15), N-Pentyl-N-[[2′-(1H-tetrazol-5-yl)-1,1′-biphenyl-4-yl]methyl]-N-[[[(2,4,6-trifluorophenyl)amino]-carbonyl]methyl]amine]",5.21
2,"CCCCCN(Cc1ccc(-c2ccccc2-c2nnn[nH]2)cc1)C(=O)Nc1c(C)cc(C)cc1C [Compound of the formula (5), N′-Pentyl-N′-[[2′-(1H-tetrazol-5-yl)-1,1′-biphenyl-4-yl]methyl]-N-(2,4,6-trimethylphenyl)urea]",5.65
3,"CCCCCN(Cc1ccc(-c2ccccc2NC(=O)C(F)(F)F)cc1)C(=O)Nc1c(F)cc(F)cc1F [Compound of the formula (10), N′-Pentyl-N′-[[2′-[[(trifluoromethyl)carbonyl]-amino]-1,1′-biphenyl-4-yl]methyl]-N-(2,4,6-trifluorophenyl)urea]",6.57
4,"CCCCCCCN(Cc1ccc(-c2ccccc2S(=O)(=O)NC(=O)Nc2c(C(C)C)cccc2C(C)C)cc1)C(=O)Nc1c(F)cc(F)cc1F [Compound of the formula (12), N′-[[2′-[[[[(2,6-Diisopropylphenyl)amino]-carbonyl]amino]sulfonyl]-1,1′-biphenyl-4-yl]methyl]-N′-heptyl-N-(2,4,6-trifluorophenyl)urea]",6.40
5,"CCCCCN(Cc1ccc(-c2ccccc2-c2nnn[nH]2)cc1)C(=O)Nc1c(F)cc(F)cc1F [Compound of the formula (6), N′-Pentyl-N′-[[2′-(1H-tetrazol-5-yl)-1,1′-biphenyl-4-yl]methyl]-N-(2,4,6-trifluorophenyl)urea]",5.52
6,"CCCCCN(CC(=O)Nc1c(C)cc(C)cc1C)Cc1ccc(-c2ccccc2-c2nnn[nH]2)cc1 [Compound of the formula (14), N-Pentyl-N-[[2′-(1H-tetrazol-5-yl)-1,1′-biphenyl-4-yl]methyl]-N-[[[(2,4,6-trimethylphenyl)amino]-carbonyl]methyl]amine]",5.23
7,"CCCCCCCN(Cc1ccc(-c2ccccc2-c2nnn[nH]2)cc1)C(=O)Nc1ccc(F)cc1F [Compound of the formula (8), N-(2,4-Difluorophenyl)-N′-heptyl-N′-[[2′-(1H-tetrazol-5-yl)-1,1′-biphenyl-4-yl]methyl]urea]",5.49
8,"CCCCCN(CC(=O)Nc1c(C(C)C)cccc1C(C)C)Cc1ccc(-c2ccccc2-c2nnn[nH]2)cc1 [Compound of the formula (13), N-[[[(2,6-Diisopropylphenyl)amino]carbonyl]methyl]-N-pentyl-N-[[2′-(1H-tetrazol-5-yl)-1,1′-biphenyl-4-yl]methyl]amine]",5.39
9,"CCCCCCCN(Cc1ccc(-c2ccccc2-c2nnn[nH]2)cc1)C(=O)Nc1c(F)cc(F)cc1F [Compound of the formula (7), N′-Heptyl-N′-[[2′-(1H-tetrazol-5-yl)-1,1′-biphenyl-4-yl]methyl]-N-(2,4,6-trifluorophenyl)urea]",6.23
10,"CCCCCN(Cc1ccc(-c2ccccc2NS(=O)(=O)C(F)(F)F)cc1)C(=O)Nc1c(F)cc(F)cc1F [Compound of the formula (11), N′-Pentyl-N′-[[2′-[[(trifluoromethyl)sulfonyl]-amino]-1,1′-biphenyl-4-yl]methyl]-N-(2,4,6-trifluorophenyl)urea]",5.71
11,"CCCCCN(Cc1ccc(-c2ccccc2-c2nnn[nH]2)cc1)C(=O)Nc1c(C(C)C)cccc1C(C)C [Compound of the formula (4), N-(2,6-Diisopropylphenyl)-N′-pentyl-N′-[[2′-(1H-tetrazol-5-yl)-1,1′-biphenyl-4-yl]methyl]urea]",5.72
12,"CCCCCCCN(Cc1ccc(-c2ccccc2-c2nnn[nH]2)cc1)C(=O)NC1CCCCC1 [Compound of the formula (9), N-Cyclohexyl-N′-heptyl-N′-[[2′-(1H-tetrazol-5-yl)-1,1′-biphenyl-4-yl]methyl]urea]",5.18
